{"source": "a compilation of properties of binary mixtures (doi:10.1039/b303735e)", "assay": "xn = mol fraction of the nth substance listed", "details": "298.15 K, 101.3 kPa", "data": [{"smiles": "CCCC[n+]1ccn(C)c1.F[B-](F)(F)F", "note": "+ ClCCl", "values": [{"measurement": "viscosity", "setting": "x2 = 0", "result": 110, "unit": "mPa·s"}]}, {"smiles": "CCCC[n+]1ccn(C)c1.F[B-](F)(F)F", "note": "+ CN(C)C=O", "values": [{"measurement": "viscosity", "setting": "x2 = 0", "result": 110, "unit": "mPa·s"}, {"measurement": "viscosity", "setting": "x2 = 0.2041", "result": 52.2, "unit": "mPa·s"}, {"measurement": "viscosity", "setting": "x2 = 0.3024", "result": 32.9, "unit": "mPa·s"}, {"measurement": "viscosity", "setting": "x2 = 0.4061", "result": 20.8, "unit": "mPa·s"}, {"measurement": "viscosity", "setting": "x2 = 0.4408", "result": 17.6, "unit": "mPa·s"}, {"measurement": "viscosity", "setting": "x2 = 0.5052", "result": 12.7, "unit": "mPa·s"}, {"measurement": "viscosity", "setting": "x2 = 0.5459", "result": 11, "unit": "mPa·s"}, {"measurement": "viscosity", "setting": "x2 = 0.6014", "result": 7.8, "unit": "mPa·s"}, {"measurement": "viscosity", "setting": "x2 = 0.665", "result": 6.4, "unit": "mPa·s"}, {"measurement": "viscosity", "setting": "x2 = 0.701", "result": 5.04, "unit": "mPa·s"}, {"measurement": "viscosity", "setting": "x2 = 0.8008", "result": 2.91, "unit": "mPa·s"}, {"measurement": "viscosity", "setting": "x2 = 0.9005", "result": 1.6, "unit": "mPa·s"}, {"measurement": "viscosity", "setting": "x2 = 0.947", "result": 1.19, "unit": "mPa·s"}]}, {"smiles": "CCC(C)=O", "note": "+ CCCC[n+]1ccn(C)c1.F[B-](F)(F)F", "values": [{"measurement": "viscosity", "setting": "x1 = 0.2004", "result": 42.2, "unit": "mPa·s"}, {"measurement": "viscosity", "setting": "x1 = 0.3969", "result": 15.2, "unit": "mPa·s"}, {"measurement": "viscosity", "setting": "x1 = 0.4495", "result": 11.97, "unit": "mPa·s"}, {"measurement": "viscosity", "setting": "x1 = 0.5", "result": 9.32, "unit": "mPa·s"}, {"measurement": "viscosity", "setting": "x1 = 0.5521", "result": 7.13, "unit": "mPa·s"}, {"measurement": "viscosity", "setting": "x1 = 0.6062", "result": 5.38, "unit": "mPa·s"}, {"measurement": "viscosity", "setting": "x1 = 0.6545", "result": 4.1, "unit": "mPa·s"}, {"measurement": "viscosity", "setting": "x1 = 0.8137", "result": 1.55, "unit": "mPa·s"}, {"measurement": "viscosity", "setting": "x1 = 0.8974", "result": 0.847, "unit": "mPa·s"}, {"measurement": "viscosity", "setting": "x1 = 0.9502", "result": 0.564, "unit": "mPa·s"}, {"measurement": "viscosity", "setting": "x1 = 1", "result": 0.373, "unit": "mPa·s"}]}, {"smiles": "CC#N", "note": "+ CCCC[n+]1ccn(C)c1.F[B-](F)(F)F", "values": [{"measurement": "viscosity", "setting": "x1 = 1", "result": 0.341, "unit": "mPa·s"}]}, {"smiles": "ClCCl", "note": "+ CCCC[n+]1ccn(C)c1.F[B-](F)(F)F", "values": [{"measurement": "viscosity", "setting": "x1 = 0.199", "result": 37.2, "unit": "mPa·s"}, {"measurement": "viscosity", "setting": "x1 = 0.2854", "result": 26.3, "unit": "mPa·s"}, {"measurement": "viscosity", "setting": "x1 = 0.3985", "result": 17, "unit": "mPa·s"}, {"measurement": "viscosity", "setting": "x1 = 0.5452", "result": 10.05, "unit": "mPa·s"}, {"measurement": "viscosity", "setting": "x1 = 0.5958", "result": 7.69, "unit": "mPa·s"}, {"measurement": "viscosity", "setting": "x1 = 0.6471", "result": 5.92, "unit": "mPa·s"}, {"measurement": "viscosity", "setting": "x1 = 0.6958", "result": 4.6, "unit": "mPa·s"}, {"measurement": "viscosity", "setting": "x1 = 0.8019", "result": 2.59, "unit": "mPa·s"}, {"measurement": "viscosity", "setting": "x1 = 0.9015", "result": 1.12, "unit": "mPa·s"}, {"measurement": "viscosity", "setting": "x1 = 0.9477", "result": 0.715, "unit": "mPa·s"}, {"measurement": "viscosity", "setting": "x1 = 1", "result": 0.401, "unit": "mPa·s"}]}, {"smiles": "CCCC[n+]1ccn(C)c1.F[B-](F)(F)F", "note": "+ CC#N", "values": [{"measurement": "viscosity", "setting": "x2 = 0", "result": 110, "unit": "mPa·s"}, {"measurement": "viscosity", "setting": "x2 = 0.0982", "result": 70.9, "unit": "mPa·s"}, {"measurement": "viscosity", "setting": "x2 = 0.2265", "result": 40.3, "unit": "mPa·s"}, {"measurement": "viscosity", "setting": "x2 = 0.3047", "result": 27.7, "unit": "mPa·s"}, {"measurement": "viscosity", "setting": "x2 = 0.4554", "result": 13.2, "unit": "mPa·s"}, {"measurement": "viscosity", "setting": "x2 = 0.5059", "result": 10.22, "unit": "mPa·s"}, {"measurement": "viscosity", "setting": "x2 = 0.5469", "result": 8.25, "unit": "mPa·s"}, {"measurement": "viscosity", "setting": "x2 = 0.6005", "result": 6.07, "unit": "mPa·s"}, {"measurement": "viscosity", "setting": "x2 = 0.6441", "result": 4.58, "unit": "mPa·s"}, {"measurement": "viscosity", "setting": "x2 = 0.6973", "result": 3.34, "unit": "mPa·s"}, {"measurement": "viscosity", "setting": "x2 = 0.9513", "result": 0.593, "unit": "mPa·s"}]}, {"smiles": "CCCC[n+]1ccn(C)c1.F[B-](F)(F)F", "note": "+ CCC(C)=O", "values": [{"measurement": "viscosity", "setting": "x2 = 0", "result": 110, "unit": "mPa·s"}]}]}
